The source of these data is ChEMBL document CHEMBL1127284, “The synthesis of 2,3-dihydro-4(1H)-quinazolinone angiotensin II receptor antagonists” (Bioorg Med Chem Lett, 1994).

The assay concerns the target T1, Angiotensin II receptor (Rattus norvegicus, UniProt P29089+P25095+P35351).
T1 sequence (P29089 whole entry): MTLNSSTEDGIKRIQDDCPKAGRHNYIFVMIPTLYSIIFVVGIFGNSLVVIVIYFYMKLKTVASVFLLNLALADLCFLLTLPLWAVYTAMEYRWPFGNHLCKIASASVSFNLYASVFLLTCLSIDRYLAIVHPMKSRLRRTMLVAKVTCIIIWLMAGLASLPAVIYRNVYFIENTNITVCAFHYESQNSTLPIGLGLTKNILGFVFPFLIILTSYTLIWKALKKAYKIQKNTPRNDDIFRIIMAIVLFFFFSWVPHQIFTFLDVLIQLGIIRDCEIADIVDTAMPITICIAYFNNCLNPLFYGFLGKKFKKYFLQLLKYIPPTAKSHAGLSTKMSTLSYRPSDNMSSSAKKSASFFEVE
T1 sequence (P25095 whole entry): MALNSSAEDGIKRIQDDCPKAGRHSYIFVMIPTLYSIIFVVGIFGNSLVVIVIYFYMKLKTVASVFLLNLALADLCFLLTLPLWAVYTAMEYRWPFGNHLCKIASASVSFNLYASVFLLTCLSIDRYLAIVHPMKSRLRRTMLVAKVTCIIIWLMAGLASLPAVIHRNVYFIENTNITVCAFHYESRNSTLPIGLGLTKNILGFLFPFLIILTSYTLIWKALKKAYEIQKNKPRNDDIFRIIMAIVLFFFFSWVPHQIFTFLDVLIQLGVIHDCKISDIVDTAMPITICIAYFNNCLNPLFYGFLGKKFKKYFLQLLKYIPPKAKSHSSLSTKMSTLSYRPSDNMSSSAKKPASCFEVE
T1 sequence (P35351 whole entry): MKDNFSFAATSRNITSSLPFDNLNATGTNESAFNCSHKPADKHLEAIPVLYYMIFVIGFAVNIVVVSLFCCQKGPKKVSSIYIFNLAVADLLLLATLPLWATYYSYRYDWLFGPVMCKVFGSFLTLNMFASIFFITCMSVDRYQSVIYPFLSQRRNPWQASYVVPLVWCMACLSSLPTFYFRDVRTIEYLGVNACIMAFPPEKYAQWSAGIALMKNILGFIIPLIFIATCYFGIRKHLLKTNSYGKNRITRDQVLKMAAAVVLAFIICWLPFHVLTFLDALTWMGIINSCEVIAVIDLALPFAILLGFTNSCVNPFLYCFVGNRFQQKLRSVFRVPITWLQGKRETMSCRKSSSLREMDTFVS
Briefly: Concentration required for 50% inhibition of binding against Angiotensin II receptor in the rat adrenal cortex tissue. The assay is classed as tissue-based.

What is called IC50 is the midpoint of a concentration-inhibition curve.

`CCCCC1Nc2ccccc2C(=O)N1Cc1ccc(-c2ccccc2-c2nn[nH]n2)cc1` (stereo not given) displayed an IC50 of 14 µM.
Molecule `CC1Nc2ccccc2C(=O)N1Cc1ccc(-c2ccccc2-c2nn[nH]n2)cc1` (stereo not given) gave an IC50 of 90 µM.
`CCCCC1N(Cc2ccc(-c3ccccc3-c3nn[nH]n3)cc2)C(=O)c2cc(C(C)C)ccc2N1C` (stereo not given): the IC50 is 0.65 µM.
`CCCCC1Nc2ccc(C(C)(C)OC)cc2C(=O)N1Cc1ccc(-c2ccccc2-c2nn[nH]n2)cc1` (stereo not given): the IC50 worked out at 2.7 µM.
Molecule `CCCCC1Nc2ccc(C(C)C)cc2C(=O)N1Cc1ccc(-c2ccccc2-c2nn[nH]n2)cc1` (stereo not given) came in with an IC50 of 0.09 µM.
On to `CCCCC1Nc2ccc(C(=O)OC)cc2C(=O)N1Cc1ccc(-c2ccccc2-c2nn[nH]n2)cc1` (stereo not given), for which the IC50 turned out to be 4.1 µM.
`CCCCC1N(Cc2ccc(-c3ccccc3-c3nn[nH]n3)cc2)C(=O)c2cc(C(C)(C)OC)ccc2N1C` (stereo not given) returned an IC50 of 2 µM.
In turn, `CCCCC1N(Cc2ccc(-c3ccccc3-c3nn[nH]n3)cc2)C(=O)c2ccccc2N1C` (stereo not given) had an IC50 of 1.1 µM.
In turn, `CCCCC1Nc2ccc(Cc3ccccc3)cc2C(=O)N1Cc1ccc(-c2ccccc2-c2nn[nH]n2)cc1` (stereo not given) returned an IC50 of 3.7 µM.
As for `CCCC1Nc2ccccc2C(=O)N1Cc1ccc(-c2ccccc2-c2nn[nH]n2)cc1` (stereo not given), the IC50 amounted to 0.54 µM.
Same read-out and setting: with `CCCCC1Nc2ccc(CC)cc2C(=O)N1Cc1ccc(-c2ccccc2-c2nn[nH]n2)cc1` (stereo not given) the figure was 0.37 µM.
For the molecule `CCCC1N(Cc2ccc(-c3ccccc3-c3nn[nH]n3)cc2)C(=O)c2ccccc2N1Cc1ccccc1` (stereo not given), the IC50 was 100 µM.
The same measure, in the same setting: next, `CCC1Nc2ccc(C(C)C)cc2C(=O)N1Cc1ccc(-c2ccccc2-c2nn[nH]n2)cc1` (stereo not given): 45 µM; `CCC1Nc2ccc(C)cc2C(=O)N1Cc1ccc(-c2ccccc2-c2nn[nH]n2)cc1` (stereo not given): 20 µM.
Molecule `CCCCC1(CCCC)Nc2ccccc2C(=O)N1Cc1ccc(-c2ccccc2-c2nn[nH]n2)cc1` displayed an IC50 of 13 µM.
The same measure, in the same setting: next, `CCCC1N(Cc2ccc(-c3ccccc3-c3nn[nH]n3)cc2)C(=O)c2ccccc2N1C` (stereo not given): 0.05 µM; `CCC1Nc2ccccc2C(=O)N1Cc1ccc(-c2ccccc2-c2nn[nH]n2)cc1` (stereo not given): 27 µM.
For `CCCC1Nc2ccc(C(C)C)cc2C(=O)N1Cc1ccc(-c2ccccc2-c2nn[nH]n2)cc1` (stereo not given), the IC50 was 12 µM.
For `CCCC1N(Cc2ccc(-c3ccccc3-c3nn[nH]n3)cc2)C(=O)c2ccccc2N1CC` (stereo not given), the IC50 turned out to be 7.5 µM.
Regarding `CCCCc1nc2ccc(C(C)(C)OC)cc2c(=O)n1Cc1ccc(-c2ccccc2-c2nn[nH]n2)cc1` [CL-329167], the IC50 (read-out: IC50) came to 0.006 µM.
